According to patent US20070123533A1, “New process for preparing an optically pure 2-morpholinol derivative” (SMITHKLINE BEECHAM CORPORATION, priority 2003, published 2007):
In brackets after ≈: the same amount, converted by molar mass.

Experiments:
[1] = Solubility of the racemate in the chromatography eluent; format: physicochemical; conditions: organic solvent or mixture
Source text: The selectivity obtained has a strong influence on process productivity. As illustrated in Example 3 below the addition of isopropanol to the acetonitrile mobile phase increased the selectivity over two-fold. The process productivity is almost proportional to [formula] but other parameters also have to be considered to select the best chromatographic conditions. The process is also influenced by the retention of the compounds, with tests showing the retention to be maximal at 2-3% isopropanol. However the solubility of the racemate is shown to increase with increasing isopropanol content allowing a more concentrated feed to be injected. […] Also from the standpoint of process operation robustness, since MCC involves continuous operation it is important to avoid any precipitation effects which could halt the system. Using a mobile phase containing isopropanol reduces the likelihood of precipitation occurring and is advantageous over a MCC system operating purely in 100% acetonitrile in which racemate feed and isolated enantiomers are less soluble. […]

[2] = Racemization of the pure enantiomer in heated solvents, optical purity followed over time; format: physicochemical; conditions: for Final OP (%): about 60-65° C. under reflux, starting OP >99.8%, about 20 g/L
Procedure: Pure (+)-(2S,3S)-2-(3-chlorophenyl)-3,5,5-trimethyl-2-morpholinol was tested with various solvents in order to optimize the racemization. Specifically, about 2 g of pure enantiomer ((+)(2S,3S)-2-(3-chlorophenyl)-3,5,5-trimethyl-2-morpholinol) were dissolved into 100 ml (total concentration of about 20 g/L) of solvent (see various solvents below) and heated up to about 60-65° C. under stirring (under reflux). The solution was sampled periodically in order to follow the kinetics of racemization.
Table 11 illustrates the Optical Purity of the racemization of the enantiomer in various solvents or solvent mixtures: […]

Row | Structure (SMILES) | solubility ([1]; in acetonitrile/isopropanol 95/5 mixture) [mg/mL] | solubility ([1]; in pure acetonitrile) [mg/mL] | Final OP (%) ([2]; Acetonitrile/IPA (95/5), 20 hours) | Final OP (%) ([2]; Isopropanol, 20 hours) | Final OP (%) ([2]; Methanol, 2 hours) | Final OP (%) ([2]; Methanol/HCl, 2 hours) | Final OP (%) ([2]; Water/HCl, 2 hours) | racemization (in words) ([2]; acidic aqueous solvent) | racemization conversion ([2]; methanol, after 2 hours) [%] | racemization conversion ([2]; pure isopropanol, after 20 hours) [%]
1 | C[C@H]1NC(C)(C)CO[C@]1(O)c1cccc(Cl)c1 (racemic) [racemate, (+/−)-(2R*, 3R*)-2-(3-chlorophenyl)-3,5,5-trimethyl-2-morpholinol] | 30 (≈ 117 mM) | 22.5 (≈ 88 mM) | – | – | – | – | – | – | – | –
2 | C[C@@H]1NC(C)(C)CO[C@@]1(O)c1cccc(Cl)c1 [(+)-(2S,3S)-2-(3-chlorophenyl)-3,5,5-trimethyl-2-morpholinol] | – | – | 92.8 | 84.8 | 95.3 | 97.4 | >99.8 | No racemization is observed | 10 | 30
